The source of these data is patent US20240360175A1, “PEPTIDE DERIVATIVES AND RELATED USES AS OREXIN AGONISTS” (Centessa Pharmaceuticals (UK) Limited, priority 2021, published 2024).

SMILES strings stand for the structures. Numbered stars: 1 amine (or outer) side, 2 acyl side, 3 side chain; on linkers, the order of the positions; unused ones are H or OH. Square brackets hold non-standard residues; d marks the D form. Peptide text beside a SMILES is read from it. * marks the point of attachment. Gly(N-CH2CH2(4-MeOPh)) = COc1ccc(CCNCC(=O)O)cc1; hArg(Et2) = CCN=C(NCC)NCCCC[C@H](N)C(=O)O; Phe(3-Br) = N[C@@H](Cc1cccc(Br)c1)C(=O)O; X1 = O=C(CN(CCc1ccc2ccccc2c1)[*:1])[*:2]; X6 = O=C(CN(CCc1cccc2ccccc12)[*:1])[*:2]; Gly(NCH2CH2Ph) = O=C(O)CNCCc1ccccc1; PEG6 = NCCOCCOCCOCCOCCOCCOCCC(=O)O; Hyp = O=C(O)[C@@H]1C[C@@H](O)CN1; NMeN = CN[C@@H](CC(N)=O)C(=O)O; Aoc(2) = CCCCCC[C@H](N)C(=O)O; NMeL = CN[C@@H](CC(C)C)C(=O)O; Phg = N[C@H](C(=O)O)c1ccccc1; Nle = CCCC[C@H](N)C(=O)O; Cbz = O=C(OCc1ccccc1)*

Experiment [1] addresses T1, human orexin type 1 receptor (hOX1R) (Homo sapiens, UniProt O43613).
T1 construct: expressed in transfected cells
T1 sequence (O43613 1-425): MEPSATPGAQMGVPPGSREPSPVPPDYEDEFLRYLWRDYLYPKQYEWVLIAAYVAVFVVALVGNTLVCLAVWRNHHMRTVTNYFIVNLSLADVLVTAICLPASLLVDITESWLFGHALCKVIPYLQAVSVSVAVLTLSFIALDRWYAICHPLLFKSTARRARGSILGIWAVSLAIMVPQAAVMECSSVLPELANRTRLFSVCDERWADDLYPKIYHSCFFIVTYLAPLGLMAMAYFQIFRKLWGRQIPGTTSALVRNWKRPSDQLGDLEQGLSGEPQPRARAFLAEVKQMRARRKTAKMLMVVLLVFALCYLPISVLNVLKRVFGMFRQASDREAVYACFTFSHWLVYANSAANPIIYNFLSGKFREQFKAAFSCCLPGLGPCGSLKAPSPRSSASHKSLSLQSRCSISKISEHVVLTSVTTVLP
Kind of experiment: Measurement of orexin type 1 receptor agonist activity (FLIPR TETRA intracellular Ca2+ fluorescence). The class given is cell-based. The settings on record: CHO cells expressing hOX1R; agonist activity, Ca2+ fluorescence; read-out: hOX1 pEC50 (converted). The protocol: (§1) Stable cell line generation. Obtainment of cells stably expressing either human orexin type 2 or human orexin type 1 receptor: to obtain a stable cell line the Orexin receptor cDNA was inserted into pcDNA3.1(+) plasmid vector and clones identified by G418 drug resistance selection. […] A single clone for OX2R—CHO and OX1R—CHO were grown in bulk and frozen to generate a cell bank for routine screening.
(§2) Measurement of orexin type 1 receptor agonist activity. Chinese hamster ovary (CHO) cells expressing human orexin type 1 receptor (hOX1R) were seeded in each well of 384 well black clear bottom plates (BD Flacon) at 10,000 cells per well and cultured for 24 h in an Ham's F12 (Gibco) medium containing 10% fetal calf serum (Sigma Aldrich) under the conditions of 37° C., 5% CO2. After removal of the medium, 50 μL of assay buffer 1 (0.1% bovine serum albumin (Sigma Aldrich), 20 mM HEPES (Molecular Dimensions), […] probenecid (Sigma Aldrich), 1× Calcium 5 dye (Molecular Devices) in Hank's balanced salt solution (Invitrogen)) was added, and the cells were incubated for 60 min under the conditions of 37° C., 5% CO2. A test peptide was dissolved in dimethyl sulfoxide (Sigma Aldrich) to 1 mM, and then diluted with assay buffer 2 (20 mM HEPES, Hank's balanced salt solution, 0.1% bovine serum albumin). For the reaction, a test peptide solution (10 μl) was added using Fluorescent Imaging Plate Reader TETRA (FLIPR TETRA: manufactured by Molecular Devices), a fluorescence value (excitation wavelength 488 nm, measurement wavelength 570 nm) of each well was measured every one second for 2 min, and the agonist activity was determined using the area of the fluorescence value as an indicator of intracellular Ca^2+ concentration. The agonist activity of the test peptide was calculated assuming that the fluorescence value of the well added with only the dilution buffer was 0% and the fluorescence value of the well added with 10 nM human orexin A (Tocris) buffer was 100%. As used herein, Emax indicates the value at 1 μM concentration when orexin A is converted to a full agonist (maximum value of agonist activity: 100%).

In experiment [2] the target is T2, human orexin type 2 receptor (hOX2R) (Homo sapiens, UniProt O43614).
T2 construct: expressed in transfected cells
T2 sequence (O43614 1-444): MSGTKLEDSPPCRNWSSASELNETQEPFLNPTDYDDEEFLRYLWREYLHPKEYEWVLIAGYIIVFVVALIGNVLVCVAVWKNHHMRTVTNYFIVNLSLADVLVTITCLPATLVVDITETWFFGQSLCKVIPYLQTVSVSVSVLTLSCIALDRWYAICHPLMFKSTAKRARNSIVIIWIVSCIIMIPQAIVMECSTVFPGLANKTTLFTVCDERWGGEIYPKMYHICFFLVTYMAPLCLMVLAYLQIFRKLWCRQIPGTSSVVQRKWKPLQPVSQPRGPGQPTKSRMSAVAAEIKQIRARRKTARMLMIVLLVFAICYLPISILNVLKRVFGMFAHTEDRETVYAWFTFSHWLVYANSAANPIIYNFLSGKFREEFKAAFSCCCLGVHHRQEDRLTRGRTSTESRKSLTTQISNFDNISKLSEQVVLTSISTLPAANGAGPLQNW
Kind of experiment: Measurement of orexin type 2 receptor agonist activity (FLIPR TETRA intracellular Ca2+ fluorescence). The class given is cell-based. The following applies: CHO cells expressing hOX2R; agonist activity, Ca2+ fluorescence; read-out: hOX2 pEC50 (converted). The protocol: as §1
as §2, with “type 2” for “type 1”, “receptor (hOX2R)” for “receptor (hOX1R) were”

With `CCCCCC[C@H](NC(=O)[C@@H](NC(=O)[C@H](CC(C)C)NC(=O)[C@@H](NC(=O)CNC(=O)[C@@H](NC(=O)[C@H](C)NC(=O)[C@H](Cc1c[nH]cn1)NC(=O)[C@H](CC(N)=O)NC(=O)CN(CCc1ccccc1)C(=O)[C@@H](N)CCCCNC(=NCC)NCC)c1ccccc1)[C@@H](C)CC)[C@@H](C)O)C(N)=O` [Peptide 24] (H-[hArg(Et2)][Gly(NCH2CH2Ph)]NHA[Phg]GILT[Aoc(2)]-NH2; N-terminus assumed), the EC50 in experiment [1] is greater than 10 nM; in experiment [2], less than 0.1 nM.
The matching figures for `CCCCCC[C@H](NC(=O)[C@@H](NC(=O)[C@H](CC(C)C)NC(=O)[C@@H](NC(=O)CNC(=O)[C@@H](NC(=O)[C@H](C)NC(=O)[C@@H]1C[C@@H](O)CN1C(=O)[C@H](CC(N)=O)N(C)C(=O)CN(CCc1ccccc1)C(=O)[C@H](CCCNC(=N)N)NC(=O)CCOCCOCCOCCOCCOCCOCCN)c1ccccc1)[C@@H](C)CC)[C@@H](C)O)C(N)=O` [Peptide 6] (H-[PEG6]R[Gly(NCH2CH2Ph)][NMeN][Hyp]A[Phg]GILT[Aoc(2)]-NH2): greater than 10 nM and less than 0.1 nM.
The matching figures for `CCCCCC[C@H](NC(=O)[C@@H](NC(=O)[C@H](CC(C)C)NC(=O)[C@@H](NC(=O)CNC(=O)[C@@H](NC(=O)[C@H](C)NC(=O)[C@@H]1C[C@@H](O)CN1C(=O)[C@H](CC(N)=O)NC(=O)CN(CCc1ccccc1)C(=O)[C@H](CCCCNC(=NCC)NCC)NC(=O)OCc1ccccc1)c1ccccc1)[C@@H](C)CC)[C@@H](C)O)C(N)=O` [Peptide 10] (Cbz-[hArg(Et2)][Gly(NCH2CH2Ph)]N[Hyp]A[Phg]GILT[Aoc(2)]-NH2): greater than 10 nM and less than 0.1 nM.
The matching figures for `CC[C@H](C)[C@H](NC(=O)CNC(=O)[C@@H](NC(=O)[C@H](C)NC(=O)[C@@H]1C[C@@H](O)CN1C(=O)[C@H](CC(N)=O)NC(=O)CN(CCc1ccc2ccccc2c1)C(=O)[C@@H](N)CCCNC(=N)N)c1ccccc1)C(=O)N[C@@H](CC(C)C)C(=O)N[C@H](C(=O)N[C@@H](Cc1cccc(Br)c1)C(N)=O)[C@@H](C)O` [Peptide 13] (H-R[X1]N[Hyp]A[Phg]GILT[Phe(3-Br)]-NH2): 1 to 10 nM and less than 0.1 nM.
For `CCCCCC[C@H](NC(=O)[C@@H](NC(=O)[C@H](CC(C)C)NC(=O)[C@@H](NC(=O)CNC(=O)[C@@H](NC(=O)[C@H](C)NC(=O)[C@H](Cc1c[nH]cn1)NC(=O)[C@H](CC(N)=O)NC(=O)CN(CCc1ccc(OC)cc1)C(=O)[C@@H](N)CCCCN/C(=N/CC)NCC)c1ccccc1)[C@@H](C)CC)[C@@H](C)O)C(N)=O` [Peptide 18] (H-[hArg(Et2)][Gly(N-CH2CH2(4-MeOPh))]NHA[Phg]GILT[Aoc(2)]-NH2), the EC50 was greater than 10 nM in experiment [1] and less than 0.1 nM in experiment [2].
The matching figures for `CCCCCC[C@H](NC(=O)[C@@H](NC(=O)[C@H](CC(C)C)NC(=O)[C@@H](NC(=O)CNC(=O)[C@@H](NC(=O)[C@H](C)NC(=O)[C@H](Cc1c[nH]cn1)NC(=O)[C@H](CC(N)=O)NC(=O)CN(CCc1ccc2ccccc2c1)C(=O)[C@@H](N)CCCCNC(=NCC)NCC)c1ccccc1)[C@@H](C)CC)[C@@H](C)O)C(N)=O` [Peptide 11] (H-[hArg(Et2)][X1]NHA[Phg]GILT[Aoc(2)]-NH2; N-terminus assumed): 1 to 10 nM and less than 0.1 nM.
The matching figures for `CCCCCC[C@H](NC(=O)[C@@H](NC(=O)[C@H](CC(C)C)NC(=O)[C@@H](NC(=O)CNC(=O)[C@@H](NC(=O)[C@H](C)NC(=O)[C@@H]1C[C@@H](O)CN1C(=O)[C@H](CC(N)=O)NC(=O)CN(CCc1ccccc1)C(=O)[C@@H](N)CCCNC(=N)N)c1ccccc1)[C@@H](C)CC)[C@@H](C)O)C(N)=O` [Peptide 14] (H-R[Gly(NCH2CH2Ph)]N[Hyp]A[Phg]GILT[Aoc(2)]-NH2; N-terminus assumed): greater than 10 nM and less than 0.1 nM.
For `CCCCCC[C@H](NC(=O)[C@@H](NC(=O)[C@H](CC(C)C)NC(=O)[C@@H](NC(=O)CNC(=O)[C@@H](NC(=O)[C@H](C)NC(=O)[C@@H]1C[C@@H](O)CN1C(=O)[C@H](CC(N)=O)NC(=O)CN(CCc1ccccc1)C(=O)[C@H](CCCNC(=N)N)NC(=O)CCOCCOCCOCCOCCOCCOCCN)c1ccccc1)[C@@H](C)CC)[C@@H](C)O)C(N)=O` [Peptide 3] (H-[PEG6]R[Gly(NCH2CH2Ph)]N[Hyp]A[Phg]GILT[Aoc(2)]-NH2), the EC50 in experiment [1] is greater than 10 nM; in experiment [2], less than 0.1 nM.
Taken in the same sequence, the figures for `CCCC[C@H](NC(=O)[C@@H](NC(=O)[C@H](CC(C)C)NC(=O)[C@@H](NC(=O)CNC(=O)[C@@H](NC(=O)[C@H](C)NC(=O)[C@@H]1C[C@@H](O)CN1C(=O)[C@H](CC(N)=O)NC(=O)CN(CCc1ccccc1)C(=O)[C@H](CCCNC(=N)N)NC(=O)CCOCCOCCOCCOCCOCCOCCN)c1ccccc1)[C@@H](C)CC)[C@@H](C)O)C(N)=O` [Peptide 28] (H-[PEG6]R[Gly(NCH2CH2Ph)]N[Hyp]A[Phg]GILT[Nle]-NH2) were greater than 10 nM and less than 0.1 nM.
The matching figures for `CC[C@H](C)[C@H](NC(=O)CNC(=O)[C@@H](NC(=O)[C@H](C)NC(=O)[C@@H]1C[C@@H](O)CN1C(=O)[C@H](CC(N)=O)NC(=O)CN(CCc1cccc2ccccc12)C(=O)[C@@H](N)CCCNC(=N)N)c1ccccc1)C(=O)N[C@@H](CC(C)C)C(=O)N[C@H](C(=O)N[C@@H](Cc1cccc(Br)c1)C(N)=O)[C@@H](C)O` [Peptide 16] (H-R[X6]N[Hyp]A[Phg]GILT[Phe(3-Br)]-NH2): 1 to 10 nM and less than 0.1 nM.
For the molecule `CCCCCC[C@H](NC(=O)[C@@H](NC(=O)[C@H](CC(C)C)N(C)C(=O)[C@@H](NC(=O)CNC(=O)[C@@H](NC(=O)[C@H](C)NC(=O)[C@@H]1C[C@@H](O)CN1C(=O)[C@H](CC(N)=O)N(C)C(=O)CN(CCc1ccccc1)C(=O)[C@H](CCCNC(=N)N)NC(=O)CCOCCOCCOCCOCCOCCOCCN)c1ccccc1)[C@@H](C)CC)[C@@H](C)O)C(N)=O` [Peptide 31] (H-[PEG6]R[Gly(NCH2CH2Ph)][NMeN][Hyp]A[Phg]GI[NMeL]T[Aoc(2)]-NH2), the EC50 in experiment [1] is greater than 10 nM; in experiment [2], less than 0.1 nM.
